Laboratory results taken from PMC12203311, “Design, synthesis, in silico and in vitro evaluation of pyrrole–indole hybrids as dual tubulin and aromatase inhibitors with potent anticancer activities” (RSC Advances, 2025).

What was measured:
[1] = system: NCI-H322M; assay: NCI60 five-dose screen; type: cell-based; conditions: Homo sapiens, NSC lung cancer; for CC50: read-out: LC50 (the source's name)
[2] = system: UACC-62; assay: NCI60 five-dose screen; type: cell-based; conditions: Homo sapiens, UACC-62, melanoma; for CC50: read-out: LC50 (the source's name)
[3] = system: SK-MEL-28; assay: NCI60 five-dose screen; type: cell-based; conditions: Homo sapiens, SK-MEL-28, melanoma; for CC50: read-out: LC50 (the source's name)
[4] = system: NCI/ADR-RES; assay: NCI60 five-dose screen; type: cell-based, human; conditions: Homo sapiens, ovarian cancer; for CC50: read-out: LC50 (the source's name)
[5] = system: K-562; assay: NCI60 five-dose screen; type: cell-based; conditions: Homo sapiens, K562, K-562, leukemia; for CC50: read-out: LC50 (the source's name)
[6] = system: 786-0; assay: NCI60 five-dose screen; type: cell-based; conditions: Homo sapiens, 786-0, renal cancer; for CC50: read-out: LC50 (the source's name)
[7] = target: T1, Human CYP19 (aromatase) (Homo sapiens, UniProt P11511); assay: Aromatase inhibition assay (DBF fluorometric substrate); type: biochemical; conditions: active defined as IC50 < 12.5 µM
T1 construct: purchased GENTEST, Woburn, MA 456260; host or cells: baculovirus/insect cells
T1 sequence (P11511 1-503): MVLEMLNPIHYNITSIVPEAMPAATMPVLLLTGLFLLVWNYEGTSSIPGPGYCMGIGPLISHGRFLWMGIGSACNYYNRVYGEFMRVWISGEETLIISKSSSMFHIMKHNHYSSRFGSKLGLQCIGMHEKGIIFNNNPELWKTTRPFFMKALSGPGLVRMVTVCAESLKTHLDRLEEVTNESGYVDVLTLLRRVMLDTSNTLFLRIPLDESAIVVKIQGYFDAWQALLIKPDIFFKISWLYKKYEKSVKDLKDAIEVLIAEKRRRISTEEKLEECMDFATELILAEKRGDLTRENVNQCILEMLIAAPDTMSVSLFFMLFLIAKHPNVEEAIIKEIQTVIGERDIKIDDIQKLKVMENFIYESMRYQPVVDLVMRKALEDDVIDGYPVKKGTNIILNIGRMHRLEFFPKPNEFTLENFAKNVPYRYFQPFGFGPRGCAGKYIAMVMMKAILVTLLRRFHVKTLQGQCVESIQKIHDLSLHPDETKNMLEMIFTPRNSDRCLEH
Procedure, shortened: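 Supersomes expressing human CYP19 plus oxidoreductase (baculovirus/insect cell) with fluorometric substrate DBF; cofactor mixture pre-incubated 10 min at 37 °C, reaction run 30 min at 37 °C, stopped with NaOH. Fluorescence read at ex 490/em 530 nm.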

[8] = system: OVCAR-4; assay: NCI60 five-dose screen; type: cell-based; conditions: Homo sapiens, OVCAR-4, ovarian cancer; for CC50: read-out: LC50 (the source's name)
[9] = system: A549/ATCC; assay: NCI60 five-dose screen; type: cell-based; conditions: Homo sapiens, NSC lung cancer; for CC50: read-out: LC50 (the source's name)
[10] = Cytotoxicity MTT assay, L929; type: cell-based, mouse; conditions: mouse, L929 fibroblast cells; MTT, 48 hours
Procedure, shortened: (§1)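 T47D breast cancer and L929 mouse fibroblasts in DMEM/10% FBS, seeded at 10 000 cells/well and grown overnight. Compounds at designated concentrations for 48 h at 37 °C, then 0.5 mg/mL MTT for 3 h. Formazan dissolved in DMSO, A570 read, viability as % of DMSO vehicle.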

[11] = system: L929 normal mouse fibroblast cell line; assay: Cytotoxicity MTT assay, L929; type: cell-based; conditions: IC50 (L929)/IC50 (T47D)
Procedure, shortened: as §1

[12] = system: NCI-H522; assay: NCI60 five-dose screen; type: cell-based; conditions: Homo sapiens, NCI-H522, NSC lung cancer; for CC50: read-out: LC50 (the source's name)
[13] = system: SNB-75; assay: NCI60 five-dose screen; type: cell-based; conditions: Homo sapiens, SNB-75, CNS cancer; for CC50: read-out: LC50 (the source's name)
[14] = system: ACHN; assay: NCI60 five-dose screen; type: cell-based; conditions: Homo sapiens, renal cancer; for CC50: read-out: LC50 (the source's name)
[15] = system: SNB-19; assay: NCI60 five-dose screen; type: cell-based; conditions: Homo sapiens, SNB-19, CNS cancer; for CC50: read-out: LC50 (the source's name)
[16] = system: KM12; assay: NCI60 five-dose screen; type: cell-based; conditions: Homo sapiens, KM12, colon cancer; for CC50: read-out: LC50 (the source's name)
[17] = system: SF-539; assay: NCI60 five-dose screen; type: cell-based; conditions: Homo sapiens, SF-539, CNS cancer; for CC50: read-out: LC50 (the source's name)
[18] = system: SK-MEL-5; assay: NCI60 five-dose screen; type: cell-based, human; conditions: Homo sapiens; for CC50: SK-MEL-5, SK-MEL-5, melanoma, read-out: LC50 (the source's name); for GI50: SK-MEL-5, melanoma
[19] = system: EKVX; assay: NCI60 five-dose screen; type: cell-based; conditions: Homo sapiens, NSC lung cancer; for CC50: read-out: LC50 (the source's name)
[20] = system: TK-10; assay: NCI60 five-dose screen; type: cell-based; conditions: Homo sapiens, TK-10, renal cancer; for CC50: read-out: LC50 (the source's name)
[21] = system: COLO 205; assay: NCI60 five-dose screen; type: cell-based, human; conditions: Homo sapiens; for CC50: COLO 205, COLO 205, colon cancer, read-out: LC50 (the source's name); for GI50: COLO 205, colon cancer

Compound | IC50 [7] | GI50 [1] | CC50 [1] | GI50 [2] | CC50 [2] | GI50 [3] | CC50 [3] | GI50 [4] | CC50 [4] | GI50 [5] | CC50 [5] | GI50 [6] | CC50 [6] | GI50 [8] | CC50 [8] | GI50 [9] | CC50 [9] | IC50 at 48 h [10] | Selectivity index (SI) [11] | GI50 [12] | also measured
O=C(N/N=C/c1ccc(C(=O)N2CCOCC2)[nH]1)c1[nH]c2ccc(Br)cc2c1-c1ccccc1 [Derivative 3n, (E)-5-Bromo-N′-((5-(morpholine-4-carbonyl)-1H-pyrrol-2-yl)methylene)-3-phenyl-1H-indole-2-carbohydrazide] | 3.3 ± 0.6 µM | 13.9 µM | > 100 µM | 0.864 µM | 63.7 µM | 6.1 µM | > 100 µM | 1.92 µM | 84.1 µM | 1.27 µM | 42.7 µM | 2.86 µM | 80.7 µM | 2.93 µM | > 100 µM | 3.88 µM | > 100 µM | 21.8 ± 11.5 µM | 4.04 | 1.6 µM | CC50 [12]: 58.8 µM; GI50 [13]: 0.809 µM; CC50 [13]: 88.9 µM; GI50 [14]: 4.56 µM; CC50 [14]: > 100 µM; GI50 [15]: 5.66 µM; CC50 [15]: > 100 µM; GI50 [16]: 2.91 µM; CC50 [16]: 43.6 µM; GI50 [17]: 2.23 µM; CC50 [17]: 34.9 µM; CC50 [18]: 17 µM; GI50 [18]: 1.48 µM; GI50 [19]: 7.51 µM; CC50 [19]: > 100 µM; GI50 [20]: 10.4 µM; CC50 [20]: > 100 µM; CC50 [21]: 37.5 µM; GI50 [21]: 3.12 µM
CCOC(=O)c1cc(/C=N/NC(=O)c2[nH]c3ccc(Br)cc3c2-c2ccccc2)c[nH]1 [Derivative 3v, Ethyl (E)-4-((2-(5-bromo-3-phenyl-1H-indole-2-carbonyl)hydrazono)methyl)-1H-pyrrole-2-carboxylate] | 2.5 ± 0.6 µM | 4.42 µM | 76.1 µM | 3.18 µM | 40.7 µM | 4.73 µM | 48.5 µM | 2.23 µM | 21.2 µM | 4.59 µM | > 100 µM | 6.01 µM | 53.3 µM | 9 µM | 52.8 µM | 4.37 µM | 44.2 µM | 90.1 ± 40.3 µM | 3.62 | 2.41 µM | CC50 [12]: 61.2 µM; GI50 [13]: 1.95 µM; CC50 [13]: 90.6 µM; GI50 [14]: 4.87 µM; CC50 [14]: 49.9 µM; GI50 [15]: 4.08 µM; CC50 [15]: 43.4 µM; GI50 [16]: 3.37 µM; CC50 [16]: 35.5 µM; GI50 [17]: 2.02 µM; CC50 [17]: 13.5 µM; CC50 [18]: 17.9 µM; GI50 [18]: 2.01 µM; GI50 [19]: 7.14 µM; CC50 [19]: 60.7 µM; GI50 [20]: 12.5 µM; CC50 [20]: 80.7 µM; CC50 [21]: 34.8 µM; GI50 [21]: 3.51 µM

Continued, in another order:

IC50 [7] | Compound | GI50 [1] | CC50 [1] | GI50 [2] | CC50 [2] | GI50 [3] | CC50 [3] | GI50 [4] | CC50 [4] | GI50 [5] | CC50 [5] | GI50 [6] | CC50 [6] | GI50 [8] | CC50 [8] | GI50 [9] | CC50 [9] | IC50 at 48 h [10] | Selectivity index (SI) [11] | GI50 [12] | also measured
4.6 ± 0.5 µM | CCc1ccc(/C=N/NC(=O)c2[nH]c3ccc(Br)cc3c2-c2ccccc2)[nH]1 [Derivative 3s, (E)-5-Bromo-N′-((5-ethyl-1H-pyrrol-2-yl)methylene)-3-phenyl-1H-indole-2-carbohydrazide] | 1.73 µM | 64.6 µM | 0.381 µM | 38.1 µM | 0.979 µM | 49.8 µM | 0.253 µM | 30.2 µM | 0.338 µM | > 100 µM | 0.801 µM | 47.4 µM | 2.41 µM | 53.7 µM | 0.399 µM | 70.3 µM | 19.5 ± 11.8 µM | 5.13 | 0.183 µM | CC50 [12]: 28 µM; GI50 [13]: 0.285 µM; CC50 [13]: 54.1 µM; GI50 [14]: 0.861 µM; CC50 [14]: 36.6 µM; GI50 [15]: 1.82 µM; CC50 [15]: 51.8 µM; GI50 [16]: 0.289 µM; CC50 [16]: 37.5 µM; GI50 [17]: 0.225 µM; CC50 [17]: 29.8 µM; CC50 [18]: 10.1 µM; GI50 [18]: 0.381 µM; GI50 [19]: 0.453 µM; CC50 [19]: 43 µM; GI50 [20]: 2.91 µM; CC50 [20]: 46.3 µM; CC50 [21]: 26.1 µM; GI50 [21]: 0.316 µM
4.7 ± 0.5 µM | CCc1c[nH]c(/C=N/NC(=O)c2[nH]c3ccc(Br)cc3c2-c2ccccc2)c1 [Derivative 3t, (E)-5-Bromo-N′-((4-ethyl-1H-pyrrol-2-yl)methylene)-3-phenyl-1H-indole-2-carbohydrazide] | 2.31 µM | 49.8 µM | 0.442 µM | 32.1 µM | 0.839 µM | 46.6 µM | 0.247 µM | 22 µM | 0.348 µM | > 100 µM | 0.646 µM | 38.5 µM | 2.17 µM | 43 µM | 0.397 µM | 38.8 µM | 7.1 ± 3.6 µM | 1.54 | 0.206 µM | CC50 [12]: 29.5 µM; GI50 [13]: 0.44 µM; CC50 [13]: 37.8 µM; GI50 [14]: 0.628 µM; CC50 [14]: 35.5 µM; GI50 [15]: 0.396 µM; CC50 [15]: 41.3 µM; GI50 [16]: 0.325 µM; CC50 [16]: 34.4 µM; GI50 [17]: 0.203 µM; CC50 [17]: 19.6 µM; CC50 [18]: 6.96 µM; GI50 [18]: 0.279 µM; GI50 [19]: 0.448 µM; CC50 [19]: 35.6 µM; GI50 [20]: 2.83 µM; CC50 [20]: 42.1 µM; GI50 [21]: 0.207 µM
9.6 ± 1 µM | CCc1cc[nH]c1/C=N/NC(=O)c1[nH]c2ccc(Br)cc2c1-c1ccccc1 [Derivative 3u, (E)-5-Bromo-N′-((3-ethyl-1H-pyrrol-2-yl)methylene)-3-phenyl-1H-indole-2-carbohydrazide] | 3.93 µM | 43.4 µM | 2.48 µM | 30.8 µM | 3.46 µM | 40.1 µM | 2.68 µM | 34.6 µM | 2.27 µM | 56.2 µM | 3.51 µM | 44.3 µM | 3.33 µM | 43.7 µM | 2 µM | 41.5 µM | 12.2 ± 0.7 µM | 1.97 | 2.3 µM | CC50 [12]: 34.1 µM; GI50 [13]: 4.94 µM; CC50 [13]: 43.4 µM; GI50 [14]: 3.27 µM; CC50 [14]: 36.7 µM; GI50 [15]: 4.5 µM; CC50 [15]: 42.2 µM; GI50 [16]: 3.17 µM; CC50 [16]: 42.3 µM; GI50 [17]: 3.17 µM; CC50 [17]: 35.6 µM; CC50 [18]: 27.2 µM; GI50 [18]: 2.54 µM; GI50 [19]: 2.79 µM; CC50 [19]: 37.7 µM; GI50 [20]: 5.05 µM; CC50 [20]: 41.6 µM; CC50 [21]: 41.3 µM; GI50 [21]: 2.96 µM
